In ChEMBL document CHEMBL3045633, “Synthesis and antimicrobial activity of newer indole semicarbazones” (2012):
≈ marks a conversion by molar mass, not a printed value.

Experiments:
Format in all cases: functional
Staphylococcus aureus = assay: Antibacterial activity against Staphylococcus aureus after 24 hr by broth dilution method
Klebsiella pneumoniae = assay: Antibacterial activity against Klebsiella pneumoniae after 24 hr by broth dilution method
Diutina rugosa [1] = assay: Antifungal activity against Candida rugosa at 100 ug after 48 hr by agar cup bioassay; details: read-out: DIZ
Pseudomonas aeruginosa = assay: Antibacterial activity against Pseudomonas aeruginosa after 24 hr by broth dilution method
Candida albicans [2] = assay: Antifungal activity against Candida albicans at 100 ug after 48 hr by agar cup bioassay; details: read-out: DIZ
Diutina rugosa [3] = assay: Antifungal activity against Candida rugosa at 150 ug after 48 hr by agar cup bioassay; details: read-out: DIZ
Bacillus subtilis = assay: Antibacterial activity against Bacillus subtilis after 24 hr by broth dilution method
Escherichia coli = assay: Antibacterial activity against Escherichia coli after 24 hr by broth dilution method
[4] = tested on: Staphylococcus epidermidis; assay: Antibacterial activity against Staphylococcus epidermidis after 24 hr by broth dilution method
Candida albicans [5] = assay: Antifungal activity against Candida albicans at 150 ug after 48 hr by agar cup bioassay; details: read-out: DIZ
Diutina rugosa [6] = assay: Antifungal activity against Candida rugosa at 50 ug after 48 hr by agar cup bioassay; details: read-out: DIZ
Candida albicans [7] = assay: Antifungal activity against Candida albicans at 50 ug after 48 hr by agar cup bioassay; details: read-out: DIZ

| Compound | MIC (Staphylococcus aureus) [µg/mL] | MIC (Klebsiella pneumoniae) [µg/mL] | MIC (Pseudomonas aeruginosa) [µg/mL] | MIC (Bacillus subtilis) [µg/mL] | MIC (Escherichia coli) [µg/mL] | MIC [4] [µg/mL] | zone of inhibition at 100 µg/disc (Diutina rugosa [1]) [mm] | zone of inhibition at 100 µg/disc (Candida albicans [2]) [mm] | zone of inhibition at 150 µg/disc (Diutina rugosa [3]) [mm] | zone of inhibition at 150 µg/disc (Candida albicans [5]) [mm] | zone of inhibition at 50 µg/disc (Diutina rugosa [6]) [mm] | zone of inhibition at 50 µg/disc (Candida albicans [7]) [mm] |
| --- | --- | --- | --- | --- | --- | --- | --- | --- | --- | --- | --- | --- |
| NC(=O)N/N=C/c1c(-c2ccccc2)n(CC(=O)c2ccccc2)c2ccccc12 | 130 (≈ 328 µM) | 115 (≈ 290 µM) | 100 (≈ 252 µM) | 125 (≈ 315 µM) | 100 (≈ 252 µM) | 110 (≈ 277 µM) | 0 | 0 | 8 | 8 | – | – |
| NC(=O)N/N=C/c1c(-c2ccccc2)n(CC(=O)c2ccc([N+](=O)[O-])cc2)c2ccccc12 | 125 (≈ 283 µM) | 37.5 (≈ 84.9 µM) | 75 (≈ 170 µM) | 120 (≈ 272 µM) | 130 (≈ 294 µM) | 110 (≈ 249 µM) | 10 | 9 | 14 | 14 | – | – |
| NC(=O)N/N=C/c1c(-c2ccccc2)n(CC(=O)c2ccc(-c3ccccc3)cc2)c2ccccc12 | 110 (≈ 233 µM) | 135 (≈ 286 µM) | 105 (≈ 222 µM) | > 150 | 120 (≈ 254 µM) | 130 (≈ 275 µM) | – | – | – | – | – | – |
| C=CCn1c(-c2ccccc2)c(/C=N/NC(N)=O)c2ccccc21 | 125 (≈ 393 µM) | > 150 | 125 (≈ 393 µM) | 140 (≈ 440 µM) | 120 (≈ 377 µM) | 115 (≈ 361 µM) | 7 | 10 | 12 | 15 | – | – |
| CCCCn1c(-c2ccccc2)c(/C=N/NC(N)=O)c2ccccc21 | 125 (≈ 374 µM) | 110 (≈ 329 µM) | 120 (≈ 359 µM) | > 150 | 140 (≈ 419 µM) | 135 (≈ 404 µM) | 9 | 9 | 10 | 12 | – | – |
| C#CCn1c(-c2ccccc2)c(/C=N/NC(N)=O)c2ccccc21 | > 150 | 110 (≈ 348 µM) | > 150 | 125 (≈ 395 µM) | > 150 | > 150 | 10 | 8 | 15 | 13 | – | – |
| C[C@@H]1[C@H](O)[C@@H](C)/C=C/C=C/C=C/C=C/C=C/C=C/C=C/[C@H](O[C@@H]2O[C@H](C)[C@@H](O)[C@H](N)[C@@H]2O)C[C@@H]2O[C@](O)(C[C@@H](O)C[C@@H](O)[C@H](O)CC[C@@H](O)C[C@@H](O)CC(=O)O[C@H]1C)C[C@H](O)[C@H]2C(=O)O [AMPHOTERICIN B] | – | – | – | – | – | – | – | – | – | – | 21 | 23.5 |
| O=C(O)c1cn(C2CC2)c2cc(N3CCNCC3)c(F)cc2c1=O [CIPROFLOXACIN] | – | 25 (≈ 75.4 µM) | – | 24 (≈ 72.4 µM) | 20 (≈ 60.4 µM) | 22 (≈ 66.4 µM) | – | – | – | – | – | – |

Further lines, with some results ahead:

| MIC (Staphylococcus aureus) [µg/mL] | MIC (Klebsiella pneumoniae) [µg/mL] | MIC (Pseudomonas aeruginosa) [µg/mL] | MIC (Bacillus subtilis) [µg/mL] | MIC (Escherichia coli) [µg/mL] | MIC [4] [µg/mL] | Compound | zone of inhibition at 100 µg/disc (Diutina rugosa [1]) [mm] | zone of inhibition at 100 µg/disc (Candida albicans [2]) [mm] | zone of inhibition at 150 µg/disc (Diutina rugosa [3]) [mm] | zone of inhibition at 150 µg/disc (Candida albicans [5]) [mm] | zone of inhibition at 50 µg/disc (Diutina rugosa [6]) [mm] | zone of inhibition at 50 µg/disc (Candida albicans [7]) [mm] |
| --- | --- | --- | --- | --- | --- | --- | --- | --- | --- | --- | --- | --- |
| 130 (≈ 302 µM) | 120 (≈ 278 µM) | 115 (≈ 267 µM) | 110 (≈ 255 µM) | 125 (≈ 290 µM) | 140 (≈ 325 µM) | NC(=O)N/N=C/c1c(-c2ccccc2)n(CC(=O)c2ccc(Cl)cc2)c2ccccc12 | 5 | 4 | 12 | 10 | – | – |
| 125 (≈ 263 µM) | 130 (≈ 273 µM) | 135 (≈ 284 µM) | 105 (≈ 221 µM) | 120 (≈ 252 µM) | 130 (≈ 273 µM) | NC(=O)N/N=C/c1c(-c2ccccc2)n(CC(=O)c2ccc(Br)cc2)c2ccccc12 | – | – | – | – | – | – |
| 130 (≈ 317 µM) | > 150 | > 150 | > 150 | 130 (≈ 317 µM) | 125 (≈ 305 µM) | Cc1ccc(C(=O)Cn2c(-c3ccccc3)c(/C=N/NC(N)=O)c3ccccc32)cc1 | 7 | 7 | 10 | 10 | – | – |
| 110 (≈ 258 µM) | 120 (≈ 281 µM) | 145 (≈ 340 µM) | 140 (≈ 328 µM) | 140 (≈ 328 µM) | 130 (≈ 305 µM) | COc1ccc(C(=O)Cn2c(-c3ccccc3)c(/C=N/NC(N)=O)c3ccccc32)cc1 | 8 | 8 | 10 | 10 | – | – |
